# Measurements published in ChEMBL document CHEMBL5038598, “Design and Synthesis of Pyrrolo[2,3-d]pyrimidine-Derived Leucine-Rich Repeat Kinase 2 (LRRK2) Inhibitors Using a Checkpoint Kinase 1 (CHK1)-Derived Crystallographic Surrogate” (J Med Chem, 2021).
# The source made the active and inactive calls. No cut-off for these calls is given here.
# Assays:
# [1] = system: P-glycoprotein (human); assay: Apparent permeability in MDCK-MDR1 cells expressing human P-glycoprotein; format: ADME, cell-based, Canis lupus familiaris; details: dog
# [2] = Oral bioavailability in Beagle dog plasma at 2 mg/kg relative to liver blood flow; format: ADME, organism-based, Canis lupus familiaris
# [3] = species: Homo sapiens; assay: Inhibition of human PIP5K2C (M1/A421) WT expressed in mammalian system assessed as remaining activity measured at 1 uM by DiscoveRx KINOMEscan assay relative to control
# [4] = molecular target: T1, Leucine-rich repeat serine/threonine-protein kinase 2 (Homo sapiens, UniProt Q5S007, G2019S); assay: Inhibition of recombinant human GST tagged truncated LRRK2 G2019S mutant using fluorescein-labeled LRRKtide as substrate in presence of ATP preincubated for 50 mins followed by anti-phospho-LRRKtide antibody addition and measured after 30 mins by TR-FRET based Lanthascreen kinase activity assay
# T1 sequence (Q5S007 whole entry G2019S, the tested form may be a part): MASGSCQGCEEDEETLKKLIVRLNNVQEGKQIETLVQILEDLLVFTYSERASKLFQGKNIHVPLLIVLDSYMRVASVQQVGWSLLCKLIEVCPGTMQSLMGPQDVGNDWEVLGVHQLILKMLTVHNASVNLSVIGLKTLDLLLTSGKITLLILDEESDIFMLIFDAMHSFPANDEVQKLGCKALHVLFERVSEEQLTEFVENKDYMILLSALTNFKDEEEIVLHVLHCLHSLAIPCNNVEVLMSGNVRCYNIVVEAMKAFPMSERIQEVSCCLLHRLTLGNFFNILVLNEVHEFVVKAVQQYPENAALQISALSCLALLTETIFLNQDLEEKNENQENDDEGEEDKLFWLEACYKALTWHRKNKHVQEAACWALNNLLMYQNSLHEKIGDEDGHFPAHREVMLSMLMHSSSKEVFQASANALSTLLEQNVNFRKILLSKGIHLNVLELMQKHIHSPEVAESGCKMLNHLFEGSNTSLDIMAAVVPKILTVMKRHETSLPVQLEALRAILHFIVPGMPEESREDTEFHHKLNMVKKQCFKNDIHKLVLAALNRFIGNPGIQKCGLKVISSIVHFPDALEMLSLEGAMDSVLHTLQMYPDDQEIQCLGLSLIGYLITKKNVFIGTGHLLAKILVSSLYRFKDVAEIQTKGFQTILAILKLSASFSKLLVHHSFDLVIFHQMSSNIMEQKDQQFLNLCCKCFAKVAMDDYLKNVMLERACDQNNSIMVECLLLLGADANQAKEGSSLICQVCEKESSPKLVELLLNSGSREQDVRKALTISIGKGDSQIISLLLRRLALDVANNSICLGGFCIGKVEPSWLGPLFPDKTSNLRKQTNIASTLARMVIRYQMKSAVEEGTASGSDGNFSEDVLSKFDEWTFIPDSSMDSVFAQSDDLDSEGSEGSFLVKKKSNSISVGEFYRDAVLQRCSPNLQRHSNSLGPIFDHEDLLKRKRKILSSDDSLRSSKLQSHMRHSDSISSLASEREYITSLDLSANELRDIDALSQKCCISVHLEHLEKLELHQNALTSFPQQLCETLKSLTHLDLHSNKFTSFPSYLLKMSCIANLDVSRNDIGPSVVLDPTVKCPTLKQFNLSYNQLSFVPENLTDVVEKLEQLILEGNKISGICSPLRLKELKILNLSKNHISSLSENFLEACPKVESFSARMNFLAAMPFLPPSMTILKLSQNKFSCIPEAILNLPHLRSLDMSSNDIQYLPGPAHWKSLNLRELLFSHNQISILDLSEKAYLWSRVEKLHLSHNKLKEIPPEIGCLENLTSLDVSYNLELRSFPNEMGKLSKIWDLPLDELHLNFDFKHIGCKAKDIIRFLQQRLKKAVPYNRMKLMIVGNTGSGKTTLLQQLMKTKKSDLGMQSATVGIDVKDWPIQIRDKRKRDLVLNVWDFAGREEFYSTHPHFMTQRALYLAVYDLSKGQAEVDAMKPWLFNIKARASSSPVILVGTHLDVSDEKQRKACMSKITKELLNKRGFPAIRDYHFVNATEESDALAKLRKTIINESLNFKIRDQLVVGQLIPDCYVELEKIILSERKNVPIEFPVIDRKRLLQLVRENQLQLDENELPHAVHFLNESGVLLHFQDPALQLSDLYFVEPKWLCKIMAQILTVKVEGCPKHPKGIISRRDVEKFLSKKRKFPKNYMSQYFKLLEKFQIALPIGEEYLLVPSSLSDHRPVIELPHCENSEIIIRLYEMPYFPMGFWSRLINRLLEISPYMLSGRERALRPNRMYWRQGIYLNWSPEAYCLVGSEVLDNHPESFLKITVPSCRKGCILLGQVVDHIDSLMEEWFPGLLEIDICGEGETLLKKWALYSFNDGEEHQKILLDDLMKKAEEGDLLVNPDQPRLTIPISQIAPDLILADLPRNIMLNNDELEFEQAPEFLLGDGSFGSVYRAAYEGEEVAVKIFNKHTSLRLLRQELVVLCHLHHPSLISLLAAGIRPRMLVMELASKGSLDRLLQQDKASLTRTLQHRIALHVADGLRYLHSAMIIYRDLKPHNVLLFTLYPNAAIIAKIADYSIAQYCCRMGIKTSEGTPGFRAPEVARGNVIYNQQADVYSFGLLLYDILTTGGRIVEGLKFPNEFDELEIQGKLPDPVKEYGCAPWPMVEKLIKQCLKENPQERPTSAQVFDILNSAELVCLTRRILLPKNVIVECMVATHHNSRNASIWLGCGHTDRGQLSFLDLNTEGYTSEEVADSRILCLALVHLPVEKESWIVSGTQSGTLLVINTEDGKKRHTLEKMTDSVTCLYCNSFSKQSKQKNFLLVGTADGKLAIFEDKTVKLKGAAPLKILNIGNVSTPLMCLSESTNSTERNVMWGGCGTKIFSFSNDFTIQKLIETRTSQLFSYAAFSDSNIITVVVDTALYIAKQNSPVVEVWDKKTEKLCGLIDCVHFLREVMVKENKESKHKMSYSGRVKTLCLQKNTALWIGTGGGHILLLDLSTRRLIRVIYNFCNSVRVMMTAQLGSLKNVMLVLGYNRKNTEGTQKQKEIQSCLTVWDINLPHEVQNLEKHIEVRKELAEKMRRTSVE
# [5] = molecular target: T2, Leucine-rich repeat serine/threonine-protein kinase 2 (Homo sapiens, UniProt Q5S007); assay: Inhibition of recombinant human LRRK2 WT using fluorescein-labeled LRRKtide as substrate in presence of ATP preincubated for 50 mins followed by anti-phospho-LRRKtide antibody addition and measured after 30 mins by TR-FRET based Lanthascreen kinase activity assay
# T2 sequence (Q5S007 whole entry): as the sequence (Q5S007 whole entry G2019S, the tested form may be a part) above, with S2019G counted along it
# [6] = Clearance in Beagle dog plasma at 1 mg/kg, IV relative to liver blood flow; format: ADME, organism-based, Canis lupus familiaris
# [7] = molecular target: T3, Phosphatidylinositol 4-kinase beta (Homo sapiens, UniProt Q9UBF8); assay: Inhibition of human PIK4CB (M1/M828) WT expressed in mammalian system assessed as remaining activity measured at 1 uM by DiscoveRx KINOMEscan assay relative to control
# [8] = molecular target: T1, Leucine-rich repeat serine/threonine-protein kinase 2; assay: Inhibition of LRRK2-pSer935 in LRRK2 G2019S mutant expressing human HEK293 cells and measured after 48 hrs by ICW assay; format: cell-based
# [9] = Drug uptake in Mdr1a/ 1b-BCRP knockout C57BL/6 mouse brain at 5 mg/kg, sc and measured after 0.5 hrs; format: ADME, organism-based; details: read-out: Drug uptake
# [10] = Ratio of drug level in Md1a/1b C57BL/6 mouse brain to plasma at 5 mg/kg, sc and measured after 0.5 hrs; format: ADME, organism-based
# [11] = molecular target: T2, Leucine-rich repeat serine/threonine-protein kinase 2; assay: Inhibition of LRRK2 WT expressed in human PBMCs measured by KiNativ profiling analysis
# [12] = molecular target: T4, Interleukin-1 receptor-associated kinase 3 (Homo sapiens) (UniProt Q9Y616); assay: Inhibition of IRAK3 expressed in human PBMCs measured at 10 uM by KiNativ profiling analysis relative to control
# T4 sequence (whole entry): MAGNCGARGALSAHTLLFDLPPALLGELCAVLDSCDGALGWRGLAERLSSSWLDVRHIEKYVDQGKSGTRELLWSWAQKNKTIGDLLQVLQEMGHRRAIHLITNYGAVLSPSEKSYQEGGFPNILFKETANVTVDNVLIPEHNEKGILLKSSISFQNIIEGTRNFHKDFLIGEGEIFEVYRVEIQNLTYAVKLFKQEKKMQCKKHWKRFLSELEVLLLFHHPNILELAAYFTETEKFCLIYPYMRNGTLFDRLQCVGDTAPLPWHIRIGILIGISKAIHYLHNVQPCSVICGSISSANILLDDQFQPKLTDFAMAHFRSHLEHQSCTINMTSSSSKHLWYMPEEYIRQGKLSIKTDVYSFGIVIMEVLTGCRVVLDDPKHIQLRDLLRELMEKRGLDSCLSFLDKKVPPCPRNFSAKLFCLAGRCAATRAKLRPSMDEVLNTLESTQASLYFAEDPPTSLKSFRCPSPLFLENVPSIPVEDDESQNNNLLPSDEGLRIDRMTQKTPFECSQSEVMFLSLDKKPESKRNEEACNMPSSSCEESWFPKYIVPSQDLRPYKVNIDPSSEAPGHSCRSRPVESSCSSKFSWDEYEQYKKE
# [13] = system: Receptor-type tyrosine-protein kinase FLT3 (Homo sapiens), P36888 [UNDEFINED MUTATION]; assay: Inhibition of human FLT3 ITD, D835V (V592/Y969) mutant expressed in bacterial system assessed as remaining activity measured at 1 uM by DiscoveRx KINOMEscan assay relative to control; values are per cent of control
# [14] = Ratio of drug level in C57BL/6 WT mouse brain to plasma at 5 mg/kg, sc and measured after 0.5 hrs; format: ADME, organism-based; details: for Kp at 0.5 h: C57BL/6, mouse, brain and plasma
# [15] = Half life in Sprague-Dawley rat plasma at 1 mg/kg, IV […]; format: ADME, organism-based
# [16] = Ratio of unbound drug level in Md1a/1b BCRP knockout C57BL/6 mouse brain to plasma at 5 mg/kg, sc and measured after 0.5 hrs; format: ADME, organism-based; details: in vivo
# [17] = molecular target: T5, Adenosine receptor A2b (Homo sapiens) (UniProt P29275); assay: Binding affinity to human Adenosine receptor A2b at 1 uM by radioligand binding assay relative to control
# T5 sequence (whole entry): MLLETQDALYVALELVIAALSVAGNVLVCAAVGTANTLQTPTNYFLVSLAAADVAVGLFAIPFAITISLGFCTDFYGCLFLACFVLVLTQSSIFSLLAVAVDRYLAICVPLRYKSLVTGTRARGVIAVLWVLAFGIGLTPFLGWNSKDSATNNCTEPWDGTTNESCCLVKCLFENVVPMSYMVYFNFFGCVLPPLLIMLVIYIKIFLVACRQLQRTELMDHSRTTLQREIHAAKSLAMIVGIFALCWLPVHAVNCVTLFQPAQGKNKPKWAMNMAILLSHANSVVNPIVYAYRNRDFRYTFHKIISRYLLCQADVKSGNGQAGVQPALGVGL
# [18] = molecular target: T3, Phosphatidylinositol 4-kinase beta; assay: Binding affinity to human PIK4CB (M1/M828) WT expressed in mammalian system assessed as dissociation constant measured at 1 uM by DiscoveRx KINOMEscan assay
# [19] = Drug uptake in Mdr1a/ 1b-BCRP knockout C57BL/6 mouse plasma at 5 mg/kg, sc and measured after 0.5 hrs; format: ADME, organism-based
# [20] = molecular target: Receptor-type tyrosine-protein kinase FLT3 (Homo sapiens) (UniProt P36888); assay: Inhibition of human FLT3 WT expressed in bacterial system assessed as remaining activity measured at 1 uM by DiscoveRx KINOMEscan assay
# [21] = Half life in steady state in Beagle dog plasma at 1 mg/kg, IV […]; format: ADME, organism-based, Canis lupus familiaris
# [22] = Volume of distribution in steady state in Beagle dog plasma at 1 mg/kg, IV […]; format: ADME, organism-based, Canis lupus familiaris; details: read-out: Vdss
# [23] = molecular target: T6, Leucine-rich repeat serine/threonine-protein kinase 2 (Mus musculus, UniProt Q5S006); assay: Inhibition of LRRK2-WT-pSER935 in C57BL/6 mouse brain at 10 to 150 mg/kg and measured after 1 hrs by western blotting; format: organism-based
# T6 sequence (Q5S006 whole entry): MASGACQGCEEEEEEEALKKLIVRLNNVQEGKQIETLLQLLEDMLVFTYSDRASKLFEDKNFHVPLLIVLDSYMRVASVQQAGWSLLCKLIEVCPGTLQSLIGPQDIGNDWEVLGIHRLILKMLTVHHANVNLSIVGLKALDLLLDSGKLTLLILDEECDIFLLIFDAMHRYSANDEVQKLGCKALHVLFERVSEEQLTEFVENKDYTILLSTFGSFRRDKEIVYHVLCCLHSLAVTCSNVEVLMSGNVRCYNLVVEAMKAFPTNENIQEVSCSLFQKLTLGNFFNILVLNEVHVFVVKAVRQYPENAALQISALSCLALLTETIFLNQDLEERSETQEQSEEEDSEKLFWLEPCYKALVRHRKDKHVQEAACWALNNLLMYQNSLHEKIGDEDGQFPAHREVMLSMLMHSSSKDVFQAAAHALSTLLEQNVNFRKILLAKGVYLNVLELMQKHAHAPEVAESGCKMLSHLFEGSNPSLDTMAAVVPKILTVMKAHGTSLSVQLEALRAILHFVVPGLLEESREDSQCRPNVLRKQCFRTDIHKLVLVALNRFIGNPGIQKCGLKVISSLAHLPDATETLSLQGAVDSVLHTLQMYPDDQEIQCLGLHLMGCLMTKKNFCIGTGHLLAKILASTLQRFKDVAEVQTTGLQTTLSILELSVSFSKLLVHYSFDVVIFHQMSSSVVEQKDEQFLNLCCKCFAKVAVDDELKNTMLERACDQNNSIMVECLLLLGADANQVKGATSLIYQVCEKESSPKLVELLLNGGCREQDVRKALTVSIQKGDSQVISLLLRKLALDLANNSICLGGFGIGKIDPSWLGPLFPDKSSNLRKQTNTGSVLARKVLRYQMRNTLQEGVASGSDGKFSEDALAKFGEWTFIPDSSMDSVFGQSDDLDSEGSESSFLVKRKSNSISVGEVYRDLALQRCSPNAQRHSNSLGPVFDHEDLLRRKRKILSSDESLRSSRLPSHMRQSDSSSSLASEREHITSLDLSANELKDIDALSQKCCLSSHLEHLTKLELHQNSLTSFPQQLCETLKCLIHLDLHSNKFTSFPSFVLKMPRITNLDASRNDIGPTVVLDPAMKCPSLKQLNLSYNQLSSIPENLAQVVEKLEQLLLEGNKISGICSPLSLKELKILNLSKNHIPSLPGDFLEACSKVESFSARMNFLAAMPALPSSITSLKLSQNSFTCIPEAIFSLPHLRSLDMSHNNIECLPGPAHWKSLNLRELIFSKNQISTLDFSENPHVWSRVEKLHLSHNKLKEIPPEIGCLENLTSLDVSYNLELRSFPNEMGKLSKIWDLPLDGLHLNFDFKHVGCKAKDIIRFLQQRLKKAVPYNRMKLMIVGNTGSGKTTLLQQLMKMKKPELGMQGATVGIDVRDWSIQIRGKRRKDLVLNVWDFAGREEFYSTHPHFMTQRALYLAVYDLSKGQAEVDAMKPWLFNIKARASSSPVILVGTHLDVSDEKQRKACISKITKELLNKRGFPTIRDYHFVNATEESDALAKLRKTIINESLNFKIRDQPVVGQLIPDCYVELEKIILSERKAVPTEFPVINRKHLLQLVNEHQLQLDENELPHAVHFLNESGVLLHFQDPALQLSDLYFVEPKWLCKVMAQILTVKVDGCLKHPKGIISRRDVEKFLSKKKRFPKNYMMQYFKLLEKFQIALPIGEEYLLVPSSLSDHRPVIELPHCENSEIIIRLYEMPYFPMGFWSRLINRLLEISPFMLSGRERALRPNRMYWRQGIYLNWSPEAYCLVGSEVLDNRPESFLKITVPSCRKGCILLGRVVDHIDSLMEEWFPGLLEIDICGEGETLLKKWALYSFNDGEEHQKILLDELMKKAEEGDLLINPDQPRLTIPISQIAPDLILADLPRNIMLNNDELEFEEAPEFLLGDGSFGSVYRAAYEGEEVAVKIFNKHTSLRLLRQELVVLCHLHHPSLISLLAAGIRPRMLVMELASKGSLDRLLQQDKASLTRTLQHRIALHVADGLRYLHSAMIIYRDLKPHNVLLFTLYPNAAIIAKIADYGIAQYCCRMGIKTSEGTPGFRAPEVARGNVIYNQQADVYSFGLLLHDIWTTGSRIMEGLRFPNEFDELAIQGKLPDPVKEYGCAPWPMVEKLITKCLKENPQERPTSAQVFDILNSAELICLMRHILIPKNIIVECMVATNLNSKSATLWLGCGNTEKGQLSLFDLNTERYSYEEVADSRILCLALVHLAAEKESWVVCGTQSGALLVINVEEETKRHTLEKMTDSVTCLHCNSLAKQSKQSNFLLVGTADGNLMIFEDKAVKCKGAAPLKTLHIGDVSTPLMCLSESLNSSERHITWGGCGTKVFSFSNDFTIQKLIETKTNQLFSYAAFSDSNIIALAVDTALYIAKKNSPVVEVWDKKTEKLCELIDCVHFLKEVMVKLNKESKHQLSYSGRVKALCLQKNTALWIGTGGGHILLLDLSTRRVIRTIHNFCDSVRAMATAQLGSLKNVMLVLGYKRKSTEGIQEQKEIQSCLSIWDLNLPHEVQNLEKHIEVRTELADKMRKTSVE
# [24] = molecular target: Mitogen-activated protein kinase kinase kinase 1 (Homo sapiens, UniProt Q13233); assay: Inhibition of MAP3K1 expressed in human PBMCs measured by KiNativ profiling analysis
# [25] = molecular target: T6, Leucine-rich repeat serine/threonine-protein kinase 2; assay: Inhibition of LRRK2-WT in C57BL/6 mouse brain at 10 to 150 mg/kg and measured after 1 hrs by western blotting; format: organism-based
SMILES,Papp [1] [×10⁻⁶ cm/s],bioavailability [2] [%],Activity [3] [%],IC50 [4] [nM],IC50 [5] [nM],clearance [6] [mL/min/kg],Activity [7] [%],IC50 [8] [nM],concentration at 0.5 h [9] [ng/g],Kp at 0.5 h [10],IC50 [11] [nM],inhibition [12] [%],residual activity [13] [%],Kp at 0.5 h [14],half-life [15] [min],Ratio [16],inhibition [17] [%],Kd [18] [nM],concentration at 0.5 h [19] [ng/mL],inhibition [20],also measured
Cc1c(Nc2nc(N)c3c(C#N)c(N4CCC[C@H]4C)n(C)c3n2)cnn1[C@@H]1CCOC1,4.6,25,< 37,12,20,36.7,< 37,80,2060,1.05,67,-6,25,0.06,6,0.37,18,850,1960,inactive,"Ratio ([14]; mouse, brain, 5 mg/kg, 0.5 h): 0.07; half-life [21]: 30 min; Vd [22]: 1 L/kg; IC50 [23]: 16 nM; IC50 [24]: 1100 nM; IC50 [25]: 11 nM"
Cc1c(Nc2nc(N)c3c(C#N)c(N4CCC[C@H]4C)n(C)c3n2)cnn1[C@H]1CCOC1,4.3,96,< 37,14,23,53.3,< 37,51,1080,0.65,86,37,1.9,0.15,12,0.24,26,730,1600,inactive,half-life [21]: 36 min; Vd [22]: 1.8 L/kg; IC50 [23]: 23 nM; IC50 [24]: 840 nM; IC50 [25]: 22 nM
